The source of these data is patent US5880157A, “Derivatives of tetramethylcyclopropane” (Yissum Research Development Company of the Hebrew …, priority 1994, dated 1999).

The subject of data set [1] is subcutaneous pentylenetetrazol (Metrazol) seizure threshold. Briefly: subcutaneous pentylenetetrazol (Metrazol) seizure threshold (s.c. Met) test, rats. Conditions: for ED50: Rattus norvegicus, sc, read-out: scMet ED50; for scMet PI (protective index, TD50/ED50): rats. From the text: (§1) All compounds described before were screened for their ability to protect against seizures in two different models of epilepsy: the maximal electroshock seizure (MES) model; and the subcutaneous pentylenetetrazol (Metrazol) seizure threshold (s.c.Met) test. Agents effective in the MES model have been correlated with the ability to prevent the seizure spread, whereas those agents effective in the s.c. Met model have been correlated with the ability to raise the threshold for excitation of neural tissue. The PI value, the protective index, is calculated as described below.
(§2) The MES test is the most commonly used test to assess activity against these types of seizures.

Data set [2] can be described thus: neurotoxicity, rotorod ataxia test, mice (i.p.). The class given is in vivo, mouse. As to the method: (§3) Neurotoxicity of the described compounds was assessed in mice (i.p. administration) by the rotorod ataxia test (See Swinyard et al., Supra, pages 85-100), and also in some cases in rats (p.o. administration) by the positional sense test and gait and stance test (see Swinyard above) .
In general terms: In the rotarod test animals must keep their balance on a rotating rod.

Data set [3] has as its system maximal electroshock seizure (MES). Briefly: maximal electroshock seizure (MES) test, rats. Particulars: for ED50: Rattus norvegicus, read-out: MES ED50; for MES PI (protective index, TD50/ED50) / effective dose in the MES test (ED50) compared with Valproic Acid: rats; for effective dose in the MES test (ED50) compared with Valproic Acid: in words.
Excerpt: as §1, §2
On the technique in general: Protection in the maximal electroshock model is a classic sign of anticonvulsant action.

Data set [4] has the same test system. In words: maximal electroshock seizure (MES) test, mice. Particulars: for ED50: Mus musculus, read-out: MES ED50; for MES PI (protective index, TD50/ED50) / effective dose in the MES test (ED50) compared with Valproic Acid: mice; for effective dose in the MES test (ED50) compared with Valproic Acid: in words.
Excerpt: as §1, §2

Data set [5] concerns subcutaneous pentylenetetrazol (Metrazol) seizure threshold. In words: subcutaneous pentylenetetrazol (Metrazol) seizure threshold (s.c. Met) test, mice. Conditions: for ED50: Mus musculus, sc, read-out: scMet ED50; for scMet PI (protective index, TD50/ED50): mice; for effective doses in the s.c. Met test compared with VPA or ETS: mouse model, in words.
Excerpt: as §1, §2

Data set [6] can be described thus: neurotoxicity, positional sense test and gait and stance test, rats (p.o.). The class given is in vivo, rat. As for the experimental part: as §3
The conditions of data set [7]: in words; literature; cited from earlier work.

The term ED50 denotes the midpoint of the dose-response relation. The TD50 is the 50% point of the dose-response relation for the toxic effect studied. In the case of `CNC(=O)C1C(C)(C)C1(C)C` [Compound 1, N-Methyl-2,2,3,3-tetramethylcyclopropanecarboxamide], in data set [1], the ED50 came to 45 mg/kg and the “scMet PI (protective index, TD50/ED50)” value is 3.6. Moreover, the TD50 in data set [2] (mouse, ip, read-out: TD50 (median neurological toxic dose)) stood at 83 mg/kg. Moreover, in data set [3], the ED50 was determined as 82 mg/kg; the “MES PI (protective index, TD50/ED50)” value was 2.0; the “effective dose in the MES test (ED50) compared with Valproic Acid” value (from here on “effective dose … compared with Valproic Acid”) was “lower effective dose in the MES test”. In data set [4], the ED50 turned out to be 98 mg/kg; the “MES PI (protective index, TD50/ED50)” value came to 0.8; the “effective dose … compared with Valproic Acid” value is “lower effective dose in the MES test”. In data set [5], the ED50 stood at 39 mg/kg; the “scMet PI (protective index, TD50/ED50)” value was found to be 2.1; the “effective doses in the s.c. Met test compared with VPA or ETS” value (“effective doses … compared with VPA or ETS” for short) is listed as “lower than that found for either VPA or ETS”. Besides, the “TD50 (median neurological toxic dose)” value in data set [6] is 163 mg/kg.
As for `CC1(C)C(C(N)=O)C1(C)C` [Compound 3, 2,2,3,3-Tetramethylcyclopropanecarboxamide], the ED50 in data set [1] was 52 mg/kg; in data set [3], over 250 mg/kg; in data set [4] it was over 120 mg/kg; in data set [5], 57 mg/kg. For the same molecule, the “scMet PI (protective index, TD50/ED50)” value in data set [1] came to 7.3; in data set [5] it was 1.7. The “TD50 (median neurological toxic dose)” value in data set [2] was found to be 99 mg/kg; in data set [6], 381 mg/kg. Moreover, the “effective doses … compared with VPA or ETS” value in data set [5] was “lower than that found for either VPA or ETS”.
Take `CCCC(CCC)C(=O)O` [Valproic Acid, reference compound]: the ED50 in data set [1] was 180 mg/kg; in data set [3] it was 490 mg/kg; in data set [5], 149 mg/kg. The adverse side effects result in data set [7] is “considerable adverse side effects including hepatoxicity and teratogenicity”.
For `CCC1(C)CC(=O)NC1=O` (stereo not shown) [ETS, Ethosuximide, reference compound], the ED50 in data set [1] is 54 mg/kg; in data set [3] it was over 1200 mg/kg; in data set [4] it was over 1000 mg/kg; in data set [5], 130 mg/kg. The “TD50 (median neurological toxic dose)” value in data set [2] stood at 441 mg/kg.
In the case of `CC1(C)C(C(=O)NCC(N)=O)C1(C)C` [Compound 2, N-[(2,2,3,3-Tetramethylcyclopropyl)carbonyl]-glycinamide], the ED50 in data set [1] was over 250 mg/kg. Besides, in data set [2], the “TD50 (median neurological toxic dose)” value amounted to 259 mg/kg. In data set [3], the ED50 amounted to 82 mg/kg; the “MES PI (protective index, TD50/ED50)” value was over 6.1; the “effective dose … compared with Valproic Acid” value is “lower effective dose in the MES test”. Besides, in data set [4], the ED50 was found to be 173 mg/kg; the “MES PI (protective index, TD50/ED50)” value is 1.5; the “effective dose … compared with Valproic Acid” value is given as “lower effective dose in the MES test”. Also, in data set [5], the ED50 worked out at 115 mg/kg; the “scMet PI (protective index, TD50/ED50)” value was 2.3; the “effective doses … compared with VPA or ETS” value is on record as “lower than that found for either VPA or ETS”. In addition, the TD50 in data set [6] (rat, po, read-out: TD50 (median neurological toxic dose)) is over 500 mg/kg.
